These results are taken from PMC5484777 (Journal of medicinal chemistry, 2016).

A word on the IC50: it is the concentration needed to halve the response being measured. The term Ki denotes a dissociation constant, usually derived from enzyme kinetics or from competition with a known ligand.

Structures are written as SMILES. Entries after “also recorded” stand apart in the source; their conditions may differ.

Data set [1] has as its target GluN1/2A receptors (Rattus norvegicus, UniProt P35439+Q00959). In kind it is cell-based.
The target of data set [2] is GluN1/2A receptors (Rattus norvegicus, UniProt Q00959). It counts as cell-based. Conditions: ratio est Ki GluN1/2B / GluN1/2A.
For data set [3], the target named is GluN1/2B receptors (Rattus norvegicus, UniProt P35439+Q00960). In kind it is cell-based.
In data set [4] the target is GluN1/2C receptors (Rattus norvegicus, UniProt P35439+Q00961). In kind it is cell-based.
For data set [5], the target named is GluN1/2D receptors (Rattus norvegicus, UniProt P35439+Q62645). It counts as cell-based.
Data set [6] concerns GluN1/2A. Conditions: cited from earlier work.
A short description of data set [7]: Ex vivo brain biodistribution and autoblockade of [11C]11e. It counts as in vivo, CD-1 mice. Conditions: 15–75 min uptake, IV, mice (Figure 4A,B).
A short description of data set [8]: In vivo PET-CT imaging. Further details: species or system female athymic nude mice. Conditions: intravenous bolus, dynamic PET, mice.
Data set [9] in a line: Ex vivo brain autoradiography. It counts as in vivo, female athymic nude mice. Conditions: serial brain sections.

Chain of GluN1/2D receptors (Q62645 28-1323, other chains not shown): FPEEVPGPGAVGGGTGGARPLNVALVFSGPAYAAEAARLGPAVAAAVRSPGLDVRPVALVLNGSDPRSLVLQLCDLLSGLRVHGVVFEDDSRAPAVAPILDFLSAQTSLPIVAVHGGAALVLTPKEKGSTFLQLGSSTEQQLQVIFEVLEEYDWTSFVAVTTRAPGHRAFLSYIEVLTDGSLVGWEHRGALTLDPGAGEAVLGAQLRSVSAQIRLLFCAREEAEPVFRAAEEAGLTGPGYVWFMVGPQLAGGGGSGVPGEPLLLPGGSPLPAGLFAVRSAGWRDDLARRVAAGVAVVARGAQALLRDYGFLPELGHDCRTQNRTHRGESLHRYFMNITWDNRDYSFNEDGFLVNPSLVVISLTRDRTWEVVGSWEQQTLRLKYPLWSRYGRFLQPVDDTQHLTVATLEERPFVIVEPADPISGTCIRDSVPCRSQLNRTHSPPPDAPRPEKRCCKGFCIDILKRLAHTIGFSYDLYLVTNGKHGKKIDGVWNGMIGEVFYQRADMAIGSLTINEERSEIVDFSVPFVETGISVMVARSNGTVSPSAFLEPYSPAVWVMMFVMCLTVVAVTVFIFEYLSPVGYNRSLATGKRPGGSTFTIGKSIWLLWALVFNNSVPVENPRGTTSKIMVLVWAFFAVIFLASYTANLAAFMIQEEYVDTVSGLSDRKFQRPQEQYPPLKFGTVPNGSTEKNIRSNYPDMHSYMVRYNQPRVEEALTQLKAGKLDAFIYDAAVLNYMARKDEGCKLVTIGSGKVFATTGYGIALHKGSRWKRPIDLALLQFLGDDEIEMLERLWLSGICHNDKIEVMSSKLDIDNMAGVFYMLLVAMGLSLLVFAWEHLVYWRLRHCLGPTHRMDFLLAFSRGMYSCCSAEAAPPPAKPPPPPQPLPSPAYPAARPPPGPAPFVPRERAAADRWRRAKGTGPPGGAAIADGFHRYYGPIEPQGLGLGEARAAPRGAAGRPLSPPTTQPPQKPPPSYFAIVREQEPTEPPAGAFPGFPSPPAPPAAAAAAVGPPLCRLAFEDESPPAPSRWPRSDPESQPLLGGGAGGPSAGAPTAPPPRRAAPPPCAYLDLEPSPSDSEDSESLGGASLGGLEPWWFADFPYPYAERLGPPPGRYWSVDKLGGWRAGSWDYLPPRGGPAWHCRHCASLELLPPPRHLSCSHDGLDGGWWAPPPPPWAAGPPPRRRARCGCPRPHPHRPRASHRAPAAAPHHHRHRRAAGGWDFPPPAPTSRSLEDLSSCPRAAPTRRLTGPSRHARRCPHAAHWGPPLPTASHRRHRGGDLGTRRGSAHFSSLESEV
Chain of GluN1/2A receptors (Rattus norvegicus, UniProt P35439+Q00959) (Q00959 23-1464, other chains not shown): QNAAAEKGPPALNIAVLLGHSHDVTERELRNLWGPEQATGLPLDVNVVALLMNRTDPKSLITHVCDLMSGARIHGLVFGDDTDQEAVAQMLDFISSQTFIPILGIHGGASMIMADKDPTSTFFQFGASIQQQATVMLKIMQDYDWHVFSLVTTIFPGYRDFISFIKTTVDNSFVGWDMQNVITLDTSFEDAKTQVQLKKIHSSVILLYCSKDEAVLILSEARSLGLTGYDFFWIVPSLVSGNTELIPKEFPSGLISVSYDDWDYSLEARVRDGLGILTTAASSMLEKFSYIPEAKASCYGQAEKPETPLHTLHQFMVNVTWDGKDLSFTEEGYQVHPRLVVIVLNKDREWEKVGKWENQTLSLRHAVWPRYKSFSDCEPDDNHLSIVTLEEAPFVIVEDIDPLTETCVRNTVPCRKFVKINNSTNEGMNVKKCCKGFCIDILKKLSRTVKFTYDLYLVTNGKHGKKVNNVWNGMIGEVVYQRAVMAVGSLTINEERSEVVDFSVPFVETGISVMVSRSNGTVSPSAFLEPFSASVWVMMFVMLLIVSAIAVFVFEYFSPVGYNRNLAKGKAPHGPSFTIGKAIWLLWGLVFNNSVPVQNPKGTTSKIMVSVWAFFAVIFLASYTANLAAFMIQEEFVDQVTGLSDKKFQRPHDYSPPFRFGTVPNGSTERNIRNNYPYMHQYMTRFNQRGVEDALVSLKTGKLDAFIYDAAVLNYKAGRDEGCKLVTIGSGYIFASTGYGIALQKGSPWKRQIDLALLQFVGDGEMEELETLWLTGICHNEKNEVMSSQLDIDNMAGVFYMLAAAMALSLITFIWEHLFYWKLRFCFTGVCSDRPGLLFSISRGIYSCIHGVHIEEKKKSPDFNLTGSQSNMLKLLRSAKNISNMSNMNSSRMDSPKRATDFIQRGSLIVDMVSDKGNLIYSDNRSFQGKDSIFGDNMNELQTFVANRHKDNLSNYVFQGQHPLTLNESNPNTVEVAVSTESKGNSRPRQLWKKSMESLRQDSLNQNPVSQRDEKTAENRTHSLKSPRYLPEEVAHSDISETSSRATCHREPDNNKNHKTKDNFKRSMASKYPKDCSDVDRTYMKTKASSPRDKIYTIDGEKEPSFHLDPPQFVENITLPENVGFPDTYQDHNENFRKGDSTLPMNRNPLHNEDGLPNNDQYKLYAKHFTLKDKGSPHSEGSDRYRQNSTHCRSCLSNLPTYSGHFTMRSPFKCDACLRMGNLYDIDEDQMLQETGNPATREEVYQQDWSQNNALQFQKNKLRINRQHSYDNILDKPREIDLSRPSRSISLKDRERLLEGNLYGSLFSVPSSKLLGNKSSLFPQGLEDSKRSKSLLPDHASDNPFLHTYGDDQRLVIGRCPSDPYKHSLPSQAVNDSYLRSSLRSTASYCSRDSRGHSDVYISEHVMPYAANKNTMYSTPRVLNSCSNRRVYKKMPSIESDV
Chain of GluN1/2A receptors (Rattus norvegicus, UniProt Q00959) (Q00959 23-1464, other chains not shown): as above

With `N[C@H](C[C@H]1CC(C(=O)O)=NN1c1ccc(F)cc1)C(=O)O` [4a, (S)-5-((R)-2-Amino-2-carboxyethyl)-1-(4-fluorophenyl)-4,5-dihydro-1H-pyrazole-3-carboxylic Acid], the IC50 in data set [1] came out at 0.16 ± 0.01 µM; in [3], 0.86 ± 0.01 µM; in [4], 0.92 ± 0.02 µM; in data set [5], 0.92 ± 0.02 µM. Also, the Ki was found to be 0.043 ± 0.002 µM in data set [1], 0.33 ± 0.04 µM in data set [3], 0.23 ± 0.01 µM in data set [4] and 0.29 ± 0.01 µM in [5]. In [2], the “estimated Ki fold higher at GluN1/2B compared to GluN1/2A (selectivity)” value (from here on “estimated Ki fold higher … (selectivity)”) is given as 7.6 fold.

Consider `N[C@H](C[C@H]1CC(C(=O)O)=NN1c1ccc(Cl)cc1)C(=O)O` [4b, (S)-5-((R)-2-Amino-2-carboxyethyl)-1-(4-chlorophenyl)-4,5-dihydro-1H-pyrazole-3-carboxylic Acid], for which the IC50 in data set [1] turned out to be 0.098 ± 0.004 µM; in [3], 0.28 ± 0.02 µM; in data set [4], 0.18 ± 0.01 µM; in data set [5], 0.52 ± 0.02 µM. Also, the Ki in data set [1] was 0.027 ± 0.001 µM; in data set [3] it was 0.11 ± 0.01 µM; in data set [4], 0.044 ± 0.002 µM; in [5] it was 0.16 ± 0.01 µM. Further, in data set [2], the “estimated Ki fold higher … (selectivity)” value was 4.0 fold.

Take `N[C@H](C[C@H]1CC(C(=O)O)=NN1c1ccc(Br)cc1)C(=O)O` [4c, (S)-5-((R)-2-Amino-2-carboxyethyl)-1-(4-bromophenyl)-4,5-dihydro-1H-pyrazole-3-carboxylic Acid]: the IC50 in data set [1] is 0.091 ± 0.004 µM; in [3] it was 0.25 ± 0.02 µM; in [4], 0.19 ± 0.01 µM; in data set [5] it was 0.63 ± 0.04 µM. The Ki stood at 0.025 ± 0.001 µM in [1], 0.094 ± 0.007 µM in data set [3], 0.047 ± 0.003 µM in [4] and 0.2 ± 0.01 µM in [5].

With `N[C@H](C[C@H]1CC(C(=O)O)=NN1c1ccc(I)cc1)C(=O)O` [4d, (S)-5-((R)-2-Amino-2-carboxyethyl)-1-(4-iodophenyl)-4,5-dihydro-1H-pyrazole-3-carboxylic Acid], the results for the half-inhibitory concentration (IC50) in data set [1], in data set [3] and in data set [4] were 0.91 ± 0.08 µM, 0.7 ± 0.04 µM and 0.56 ± 0.02 µM, respectively. Besides, the Ki in [1] was 0.25 ± 0.02 µM; in data set [3], 0.27 ± 0.02 µM; in [4] it was 0.14 ± 0.01 µM.

`Cc1ccc(N2N=C(C(=O)O)C[C@@H]2C[C@@H](N)C(=O)O)cc1` [4e, (S)-5-((R)-2-Amino-2-carboxyethyl)-1-p-tolyl-4,5-dihydro-1H-pyrazole-3-carboxylic Acid]: the half-maximal inhibitory concentration (IC50) worked out at 0.18 ± 0.01 µM in [1], 0.69 ± 0.05 µM in data set [3] and 0.38 ± 0.02 µM in data set [4]. Moreover, the Ki is 0.048 ± 0.003 µM in data set [1], 0.25 ± 0.02 µM in data set [3], 0.096 ± 0.005 µM in data set [4] and 0.44 ± 0.02 µM in data set [5]. Also, the “estimated Ki fold higher … (selectivity)” value in data set [2] was 5.3 fold.

On to `C[C@H](N[C@@H](c1cccc2[nH]c(=O)c(=O)[nH]c12)P(=O)(O)O)c1ccc(Br)cc1` [NVP-AAM077, [(R)-[(S)-1-(4-bromophenyl)-ethylamino]-(2,3-dioxo-1,2,3,4-tetrahydroquinoxalin-5-yl)-methyl]-phosphonic acid], for which the “binding affinity fold higher for GluN1/2A compared to GluN1/2B” value in data set [6] was 5.2 fold.

Turning to `COC(=O)C1=NN(c2ccc([11CH3])cc2)[C@@H](C[C@@H](NC(=O)OC(C)(C)C)C(=O)OC)C1` [[^11C]11e, Methyl (S)-5-((R)-2-((tert-Butoxycarbonyl)amino)-3-methoxy-3-oxopropyl)-1-(4-[^11C]methylphenyl)-4,5-dihydro-1H-pyrazole-3-carboxylate], the “uptake in brain regions” value in data set [7] is recorded as “below 1.5 % ID/g”.

Consider `COC(=O)C1=NN(c2ccc([124I])cc2)[C@@H](C[C@@H](N)C(=O)OC)C1` [[^124I]11d, Methyl (S)-5-((R)-2-Amino-3-methoxy-3-oxopropyl)-1-(4-[^124I]-iodophenyl)-4,5-dihydro-1H-pyrazole-3-carboxylate], for which the “brain uptake by in vivo PET imaging” value in data set [8] is reported as “below the threshold of detection; also recorded: no observable brain uptake”.

Regarding `N[C@H](C[C@H]1CC(C(=O)O)=NN1c1ccc([125I])cc1)C(=O)O` [[^125I]4d, (S)-5-((R)-2-Amino-2-carboxyethyl)-1-(4-[^125I]iodophenyl)-4,5-dihydro-1H-pyrazole-3-carboxylic Acid], the “brain uptake (ex vivo autoradiography)” value in data set [9] (60 min conscious uptake) is given as “no evidence of brain uptake”.

For `COC(=O)C1=NN(c2ccc([125I])cc2)[C@@H](C[C@@H](N)C(=O)OC)C1` [[^125I]11d, Methyl (S)-5-((R)-2-Amino-3-methoxy-3-oxopropyl)-1-(4-[^125I]-iodophenyl)-4,5-dihydro-1H-pyrazole-3-carboxylate], the “brain uptake (ex vivo autoradiography)” value in [9] (40 min conscious uptake) is given as “brain region-selective uptake”.
